This note sets out measurements from patent publication US20230123334A1, “AMINO LIPID COMPOUND, PREPARATION METHOD THEREFOR, AND APPLICATION THEREOF” (SHENZHEN SHENXIN BIOTECHNOLOGY CO., LTD., priority 2020, published 2023).

For one test, the system named is HEK293 cells. As to the kind of experiment: Preliminary screening as DNA vectors, GFP transfection of HEK293 cells. To be noted: HEK293 cells; lipid/DOPE liposome with 75 ng plasmid DNA (psin-EGFP-IRES-Puro); number of cells expressing GFP divided by total number of nuclei (Hoechst). The class given is cell-based. In short, it runs like this:
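Lipid + DOPE liposomes (NaOAc, pH 5.6) complexed w/ 75 ng psin-EGFP-IRES-Puro, 30 min RT; added to 3-5×10^4 HEK293/well, 37° C. Hoechst 0.2 μg/mL at 20-24 h, imaged after further 20-24 h. Efficiency = GFP+ cells / total nuclei.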
For `CCCCCCCCCCCCNc1nc(NCCCCCC)nc(NCCN2CCCCC2)n1` [Compound N6N12D4], the “Absolute DNA transfection efficiency in HEK293 cells” value (“Absolute DNA transfection efficiency” for short) came to 0.0%.

With `CCCCCCCCCCCCNc1nc(NCCCCCC)nc(NCCN2CCN(C)CC2)n1` [Compound N6N12D5], the “Absolute DNA transfection efficiency” value is 0.1%.

Regarding `CCCCCCCCCCCCNc1nc(NCCCCCC)nc(NCCCN(C)C)n1` [Compound N6N12D6], the “Absolute DNA transfection efficiency” value was determined as 0.3%.

With `CCCCCCCCCCCCNc1nc(NCCCCCC)nc(NCCN(CC)CC)n1` [Compound N6N12D7], the “Absolute DNA transfection efficiency” value is listed as 0.0%.

Regarding `CCCCCCCCCCCCNc1nc(NCCCCCC)nc(NCCCN2CCOCC2)n1` [Compound N6N12D8], the “Absolute DNA transfection efficiency” value came to 0.0%.

As to `CCCCCCCCCCCCNc1nc(NCCCCCC)nc(NCCCN2CCN(C)CC2)n1` [Compound N6N12D9], the “Absolute DNA transfection efficiency” value came to 0.0%.

For `CCCCCCCCCCCCNc1nc(NCCCCCC)nc(NCC2CCN(C)CC2)n1` [Compound N6N12D10], the “Absolute DNA transfection efficiency” value is listed as 0.2%.

`CCCCCCCCCCCCCNc1nc(NCCCCCC)nc(NCCN(C)C)n1` [Compound N6N13D1]: the “Absolute DNA transfection efficiency” value is given as 0.0%.

As for `CCCCCCCCCCCCCNc1nc(NCCCCCC)nc(NCCN2CCOCC2)n1` [Compound N6N13D2], the “Absolute DNA transfection efficiency” value turned out to be 0.0%.

For the molecule `CCCCCCCCCCCCCNc1nc(NCCCCCC)nc(NCCN2CCCC2)n1` [Compound N6N13D3], the “Absolute DNA transfection efficiency” value is recorded as 0.5%.

Regarding `CCCCCCCCCCCCCNc1nc(NCCCCCC)nc(NCCN2CCCCC2)n1` [Compound N6N13D4], the “Absolute DNA transfection efficiency” value is 0.0%.

As to `CCCCCCCCCCCCCNc1nc(NCCCCCC)nc(NCCN2CCN(C)CC2)n1` [Compound N6N13D5], the “Absolute DNA transfection efficiency” value is on record as 0.0%.

In the case of `CCCCCCCCCCCCCNc1nc(NCCCCCC)nc(NCCCN(C)C)n1` [Compound N6N13D6], the “Absolute DNA transfection efficiency” value came out at 0.1%.

Consider `CCCCCCCCCCCCCNc1nc(NCCCCCC)nc(NCCN(CC)CC)n1` [Compound N6N13D7], for which the “Absolute DNA transfection efficiency” value was 0.1%.

Take `CCCCCCCCCCCCCNc1nc(NCCCCCC)nc(NCCCN2CCOCC2)n1` [Compound N6N13D8]: the “Absolute DNA transfection efficiency” value was found to be 0.0%.

For the molecule `CCCCCCCCCCCCCNc1nc(NCCCCCC)nc(NCCCN2CCN(C)CC2)n1` [Compound N6N13D9], the “Absolute DNA transfection efficiency” value amounted to 0.0%.

As for `CCCCCCCCCCCCCNc1nc(NCCCCCC)nc(NCC2CCN(C)CC2)n1` [Compound N6N13D10], the “Absolute DNA transfection efficiency” value is recorded as 0.0%.

As to `CCCCCCCCCCCCCCCNc1nc(NCCCCCC)nc(NCCN(C)C)n1` [Compound N6N15D1], the “Absolute DNA transfection efficiency” value came out at 0.0%.

Take `CCCCCCCCCCCCCCCNc1nc(NCCCCCC)nc(NCCN2CCOCC2)n1` [Compound N6N15D2]: the “Absolute DNA transfection efficiency” value worked out at 0.0%.

In the case of `CCCCCCCCCCCCCCCNc1nc(NCCCCCC)nc(NCCN2CCCC2)n1` [Compound N6N15D3], the “Absolute DNA transfection efficiency” value was found to be 0.6%.

`CCCCCCCCCCCCCCCNc1nc(NCCCCCC)nc(NCCN2CCCCC2)n1` [Compound N6N15D4]: the “Absolute DNA transfection efficiency” value came to 0.1%.

Turning to `CCCCCCCCCCCCCCCNc1nc(NCCCCCC)nc(NCCN2CCN(C)CC2)n1` [Compound N6N15D5], the “Absolute DNA transfection efficiency” value is 0.0%.

Take `CCCCCCCCCCCCCCCNc1nc(NCCCCCC)nc(NCCCN(C)C)n1` [Compound N6N15D6]: the “Absolute DNA transfection efficiency” value was 0.3%.

On to `CCCCCCCCCCCCCCCNc1nc(NCCCCCC)nc(NCCN(CC)CC)n1` [Compound N6N15D7], for which the “Absolute DNA transfection efficiency” value was determined as 0.0%.

Take `CCCCCCCCCCCCCCCNc1nc(NCCCCCC)nc(NCCCN2CCOCC2)n1` [Compound N6N15D8]: the “Absolute DNA transfection efficiency” value is listed as 0.3%.

Regarding `CCCCCCCCCCCCCCCNc1nc(NCCCCCC)nc(NCCCN2CCN(C)CC2)n1` [Compound N6N15D9], the “Absolute DNA transfection efficiency” value amounted to 0.1%.

As for `CCCCCCCCCCCCCCCNc1nc(NCCCCCC)nc(NCC2CCN(C)CC2)n1` [Compound N6N15D10], the “Absolute DNA transfection efficiency” value was 0.2%.

As for `CCCCCCCCCCCCCCCCNc1nc(NCCCCCC)nc(NCCN(C)C)n1` [Compound N6N16D1], the “Absolute DNA transfection efficiency” value amounted to 0.4%.

As to `CCCCCCCCCCCCCCCCNc1nc(NCCCCCC)nc(NCCN2CCOCC2)n1` [Compound N6N16D2], the “Absolute DNA transfection efficiency” value is on record as 0.0%.

As to `CCCCCCCCCCCCCCCCNc1nc(NCCCCCC)nc(NCCN2CCCC2)n1` [Compound N6N16D3], the “Absolute DNA transfection efficiency” value is 0.7%.

As for `CCCCCCCCCCCCCCCCNc1nc(NCCCCCC)nc(NCCN2CCCCC2)n1` [Compound N6N16D4], the “Absolute DNA transfection efficiency” value came out at 0.0%.

As for `CCCCCCCCCCCCCCCCNc1nc(NCCCCCC)nc(NCCN2CCN(C)CC2)n1` [Compound N6N16D5], the “Absolute DNA transfection efficiency” value was 0.0%.

Regarding `CCCCCCCCCCCCCCCCNc1nc(NCCCCCC)nc(NCCCN(C)C)n1` [Compound N6N16D6], the “Absolute DNA transfection efficiency” value was 0.2%.

A further test deals with HEK293 cells. As to the kind of experiment: Preliminary screening as mRNA vectors, EGFP mRNA transfection of HEK293 cells. It is filed as cell-based. The conditions noted are these: HEK293 cells, 96-well plates, EGFP mRNA 50 ng per well; percentage of GFP fluorescent cells relative to total number of cells (Hoechst). In short, it runs like this: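 Each well of HEK293 cells received 50 ng of EGFP mRNA. Efficiency was expressed as percent GFP-expressing cells over Hoechst-defined total cell number.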
Regarding `CCCCCCCCCCCCNc1nc(NCCCCCC)nc(NCCN2CCCCC2)n1` [Compound N6N12D4], the “Absolute mRNA transfection efficiency in HEK293 cells” value (shortened to “Absolute mRNA transfection efficiency”) is on record as 0.0%.

In the case of `CCCCCCCCCCCCNc1nc(NCCCCCC)nc(NCCN2CCN(C)CC2)n1` [Compound N6N12D5], the “Absolute mRNA transfection efficiency” value was determined as 0.0%.

On to `CCCCCCCCCCCCNc1nc(NCCCCCC)nc(NCCCN(C)C)n1` [Compound N6N12D6], for which the “Absolute mRNA transfection efficiency” value turned out to be 0.1%.

Take `CCCCCCCCCCCCNc1nc(NCCCCCC)nc(NCCN(CC)CC)n1` [Compound N6N12D7]: the “Absolute mRNA transfection efficiency” value is given as 0.0%.

Regarding `CCCCCCCCCCCCNc1nc(NCCCCCC)nc(NCCCN2CCOCC2)n1` [Compound N6N12D8], the “Absolute mRNA transfection efficiency” value amounted to 0.1%.

In the case of `CCCCCCCCCCCCNc1nc(NCCCCCC)nc(NCCCN2CCN(C)CC2)n1` [Compound N6N12D9], the “Absolute mRNA transfection efficiency” value was found to be 0.0%.

Take `CCCCCCCCCCCCNc1nc(NCCCCCC)nc(NCC2CCN(C)CC2)n1` [Compound N6N12D10]: the “Absolute mRNA transfection efficiency” value turned out to be 0.0%.

`CCCCCCCCCCCCCNc1nc(NCCCCCC)nc(NCCN(C)C)n1` [Compound N6N13D1]: the “Absolute mRNA transfection efficiency” value worked out at 0.0%.

In the case of `CCCCCCCCCCCCCNc1nc(NCCCCCC)nc(NCCN2CCOCC2)n1` [Compound N6N13D2], the “Absolute mRNA transfection efficiency” value stood at 0.0%.

In the case of `CCCCCCCCCCCCCNc1nc(NCCCCCC)nc(NCCN2CCCC2)n1` [Compound N6N13D3], the “Absolute mRNA transfection efficiency” value is on record as 1.0%.

Consider `CCCCCCCCCCCCCNc1nc(NCCCCCC)nc(NCCN2CCCCC2)n1` [Compound N6N13D4], for which the “Absolute mRNA transfection efficiency” value was 0.6%.

Turning to `CCCCCCCCCCCCCNc1nc(NCCCCCC)nc(NCCN2CCN(C)CC2)n1` [Compound N6N13D5], the “Absolute mRNA transfection efficiency” value was determined as 0.0%.

On to `CCCCCCCCCCCCCNc1nc(NCCCCCC)nc(NCCCN(C)C)n1` [Compound N6N13D6], for which the “Absolute mRNA transfection efficiency” value is 0.1%.

For the molecule `CCCCCCCCCCCCCNc1nc(NCCCCCC)nc(NCCN(CC)CC)n1` [Compound N6N13D7], the “Absolute mRNA transfection efficiency” value came out at 0.9%.

Consider `CCCCCCCCCCCCCNc1nc(NCCCCCC)nc(NCCCN2CCOCC2)n1` [Compound N6N13D8], for which the “Absolute mRNA transfection efficiency” value is 0.0%.

Take `CCCCCCCCCCCCCNc1nc(NCCCCCC)nc(NCCCN2CCN(C)CC2)n1` [Compound N6N13D9]: the “Absolute mRNA transfection efficiency” value is recorded as 0.0%.

`CCCCCCCCCCCCCNc1nc(NCCCCCC)nc(NCC2CCN(C)CC2)n1` [Compound N6N13D10]: the “Absolute mRNA transfection efficiency” value was 0.0%.

`CCCCCCCCCCCCCCCNc1nc(NCCCCCC)nc(NCCN(C)C)n1` [Compound N6N15D1]: the “Absolute mRNA transfection efficiency” value is reported as 0.0%.

Regarding `CCCCCCCCCCCCCCCNc1nc(NCCCCCC)nc(NCCN2CCOCC2)n1` [Compound N6N15D2], the “Absolute mRNA transfection efficiency” value is 0.1%.

`CCCCCCCCCCCCCCCNc1nc(NCCCCCC)nc(NCCN2CCCC2)n1` [Compound N6N15D3]: the “Absolute mRNA transfection efficiency” value was determined as 0.3%.

In the case of `CCCCCCCCCCCCCCCNc1nc(NCCCCCC)nc(NCCN2CCCCC2)n1` [Compound N6N15D4], the “Absolute mRNA transfection efficiency” value is given as 0.0%.

`CCCCCCCCCCCCCCCNc1nc(NCCCCCC)nc(NCCN2CCN(C)CC2)n1` [Compound N6N15D5]: the “Absolute mRNA transfection efficiency” value is 0.0%.

Turning to `CCCCCCCCCCCCCCCNc1nc(NCCCCCC)nc(NCCCN(C)C)n1` [Compound N6N15D6], the “Absolute mRNA transfection efficiency” value was determined as 0.3%.

`CCCCCCCCCCCCCCCNc1nc(NCCCCCC)nc(NCCN(CC)CC)n1` [Compound N6N15D7]: the “Absolute mRNA transfection efficiency” value is on record as 0.0%.

Consider `CCCCCCCCCCCCCCCNc1nc(NCCCCCC)nc(NCCCN2CCOCC2)n1` [Compound N6N15D8], for which the “Absolute mRNA transfection efficiency” value is 0.0%.

With `CCCCCCCCCCCCCCCNc1nc(NCCCCCC)nc(NCCCN2CCN(C)CC2)n1` [Compound N6N15D9], the “Absolute mRNA transfection efficiency” value came to 0.0%.

For `CCCCCCCCCCCCCCCNc1nc(NCCCCCC)nc(NCC2CCN(C)CC2)n1` [Compound N6N15D10], the “Absolute mRNA transfection efficiency” value came out at 0.7%.

In the case of `CCCCCCCCCCCCCCCCNc1nc(NCCCCCC)nc(NCCN(C)C)n1` [Compound N6N16D1], the “Absolute mRNA transfection efficiency” value is on record as 0.0%.

Take `CCCCCCCCCCCCCCCCNc1nc(NCCCCCC)nc(NCCN2CCOCC2)n1` [Compound N6N16D2]: the “Absolute mRNA transfection efficiency” value came out at 0.1%.

For `CCCCCCCCCCCCCCCCNc1nc(NCCCCCC)nc(NCCN2CCCC2)n1` [Compound N6N16D3], the “Absolute mRNA transfection efficiency” value is on record as 2.8%.

Turning to `CCCCCCCCCCCCCCCCNc1nc(NCCCCCC)nc(NCCN2CCCCC2)n1` [Compound N6N16D4], the “Absolute mRNA transfection efficiency” value amounted to 0.0%.

Take `CCCCCCCCCCCCCCCCNc1nc(NCCCCCC)nc(NCCN2CCN(C)CC2)n1` [Compound N6N16D5]: the “Absolute mRNA transfection efficiency” value amounted to 0.1%.

As for `CCCCCCCCCCCCCCCCNc1nc(NCCCCCC)nc(NCCCN(C)C)n1` [Compound N6N16D6], the “Absolute mRNA transfection efficiency” value came to 0.4%.
